Data on 14 compounds can be found in EP4667464A1 (Cyrus Therapeutics Inc., priority 2023, dated 2024).

Like-named read-outs stand apart in the source and are kept apart here.

For assay [1], the target named is T1, KRAS G12C::SOS1 (Homo sapiens, UniProt Q07889).
T1 construct: purchased CISBIO 64KRASG12PEH
T1 sequence (Q07889 1-1333): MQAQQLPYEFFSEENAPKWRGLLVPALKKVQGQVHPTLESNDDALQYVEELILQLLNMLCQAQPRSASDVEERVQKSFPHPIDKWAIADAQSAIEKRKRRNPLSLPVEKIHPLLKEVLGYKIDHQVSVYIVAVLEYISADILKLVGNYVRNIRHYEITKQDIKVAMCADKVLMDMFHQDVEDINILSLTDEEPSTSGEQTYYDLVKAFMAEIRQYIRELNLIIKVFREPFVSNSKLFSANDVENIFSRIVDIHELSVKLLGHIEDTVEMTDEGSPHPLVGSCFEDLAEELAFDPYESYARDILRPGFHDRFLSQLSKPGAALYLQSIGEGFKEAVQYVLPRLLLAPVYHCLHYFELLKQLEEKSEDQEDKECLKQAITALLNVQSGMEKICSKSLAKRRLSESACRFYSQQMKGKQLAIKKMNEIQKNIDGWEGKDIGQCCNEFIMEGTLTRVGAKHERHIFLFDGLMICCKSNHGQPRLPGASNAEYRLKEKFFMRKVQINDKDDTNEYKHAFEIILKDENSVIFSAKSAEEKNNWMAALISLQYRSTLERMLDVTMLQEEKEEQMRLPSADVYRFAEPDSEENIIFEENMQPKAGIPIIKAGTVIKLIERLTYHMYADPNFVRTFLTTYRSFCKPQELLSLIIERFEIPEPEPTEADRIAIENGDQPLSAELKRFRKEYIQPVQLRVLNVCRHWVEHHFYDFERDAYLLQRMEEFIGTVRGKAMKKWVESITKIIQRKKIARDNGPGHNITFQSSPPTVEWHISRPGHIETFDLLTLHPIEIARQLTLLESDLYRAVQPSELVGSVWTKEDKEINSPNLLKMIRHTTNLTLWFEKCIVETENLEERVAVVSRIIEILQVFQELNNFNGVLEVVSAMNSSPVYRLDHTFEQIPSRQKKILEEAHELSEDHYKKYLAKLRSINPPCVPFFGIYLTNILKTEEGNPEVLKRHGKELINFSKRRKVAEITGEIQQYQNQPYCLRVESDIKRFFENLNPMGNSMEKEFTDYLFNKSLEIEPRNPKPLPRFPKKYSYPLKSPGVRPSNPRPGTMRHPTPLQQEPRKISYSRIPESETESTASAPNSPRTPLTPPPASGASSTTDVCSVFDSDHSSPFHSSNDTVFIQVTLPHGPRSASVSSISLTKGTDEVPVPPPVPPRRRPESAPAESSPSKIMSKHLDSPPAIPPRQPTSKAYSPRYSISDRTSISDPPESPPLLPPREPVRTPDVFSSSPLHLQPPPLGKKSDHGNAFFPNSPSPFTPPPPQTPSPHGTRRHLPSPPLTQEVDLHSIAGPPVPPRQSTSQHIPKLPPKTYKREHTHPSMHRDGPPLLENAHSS
Briefly: KRAS G12C::SOS1 protein-protein interaction (PPI) inhibition assay (HTRF). It counts as binding. Particulars: 8 concentrations from 3 µM, three replicates; read-out: KRAS G12C::SOS1 PPI. In a few lines:
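Compounds, at eight 3-fold dilutions from 3 µM, were mixed with GTP-loaded Tag1-KRAS G12C, Tag2-SOS1 and a terbium-cryptate donor plus XL665 acceptor antibody pair. After 2 h at room temperature, time-resolved FRET reported the KRAS–SOS1 interaction.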
Background: In TR-FRET formats the signal depends on donor and acceptor labels being close together.

Assay [2] has as its target T2, SOS1 (Homo sapiens, UniProt Q07889).
T2 construct: HIS-SOS1cat (160 nM; Cytoskeleton, US); His (N); purchased Cytoskeleton
T2 sequence (Q07889 564-1049 limits assumed): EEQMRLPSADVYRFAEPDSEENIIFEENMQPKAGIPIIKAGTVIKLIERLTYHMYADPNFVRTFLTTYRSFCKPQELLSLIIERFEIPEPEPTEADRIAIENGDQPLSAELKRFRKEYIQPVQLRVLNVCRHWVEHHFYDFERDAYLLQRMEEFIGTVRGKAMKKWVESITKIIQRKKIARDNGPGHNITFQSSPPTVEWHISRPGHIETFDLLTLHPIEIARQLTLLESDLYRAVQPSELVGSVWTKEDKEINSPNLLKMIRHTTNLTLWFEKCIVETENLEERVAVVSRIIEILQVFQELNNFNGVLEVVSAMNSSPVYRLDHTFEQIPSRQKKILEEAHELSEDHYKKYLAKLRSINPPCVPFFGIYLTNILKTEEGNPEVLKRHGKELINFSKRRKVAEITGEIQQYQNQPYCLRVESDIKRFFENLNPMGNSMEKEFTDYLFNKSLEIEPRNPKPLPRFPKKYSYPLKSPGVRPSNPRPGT
The experiment in a line: SOS-catalyzed nucleotide exchange assay (HTRF, SOS1-mediated GTP loading of KRAS G12D). It counts as biochemical. The following applies: GST-KRAS G12D, HIS-SOS1cat, compound 128 pM to 10 µM; read-out: SOS-catalyzed nucleotide exchange assay.

Assay [3] deals with lung cancer cell line NCI-H358 having the KRAS G12C variant. The experiment in a line: Cancer cell growth inhibition, 3D spheroids (CellTiter-Glo 3D). The assay is classed as cell-based. The following applies: 3D spheroids, 0.002-10 µM, 5 days, read-out: H358 cell viability. As to the method:
Thereafter, the plate with the cells cultured was adapted to room temperature for 10 minutes, and then 50 µL of CellTiter-Glo® 3D Cell Viability Assay (PROMEGA, G9683) solution was dispensed, and reacted on a horizontal stirrer at a speed of 300 RPM for 30 minutes to induce the cell lysis. […] Thereafter, based on the measured values, the degree of cell growth in the well treated with each compound was calculated when the final cell density value of the well not treated with the test substance was set to 100%.
(ATP-based viability assays read luminescence as a measure of living cells.)

Take `[2H]C([2H])([2H])n1nncc1-c1cncc(-n2nc(C(=O)N[C@H](C)c3cccc(C(F)(F)CO)c3F)ccc2=O)c1` [Example 1-7, N-[(1R)-1-[3-(1,1-difluoro-2-hydroxy-ethyl)-2-fluoro-phenyl]ethyl]-6-oxo-1-[5-[3-(trideuteriomethyl)triazol-4-yl]-3-pyridyl]pyridazine-3-carboxamide]: the IC50 in assay [1] is less than 50 nM; in assay [2] it was less than 50 nM; in assay [3] (Homo sapiens, NCI-H358, 120 h), less than 1000 nM.
With `CC(C)n1nncc1-c1cncc(-n2nc(C(=O)N[C@H](C)c3cccc(C(F)(F)F)c3F)cc(CO)c2=O)c1` [Example 6-2, N-{(1R)-1-[2-fluoro-3-(trifluoromethyl)phenyl]ethyl}-1-[5-(1-isopropyl-1H-1,2,3-triazol-5-yl)-3-pyridyl]-5-(hydroxymethyl)-6-oxo-1,6-dihydropyridazine-3-carboxamide], the IC50 in assay [1] was 50 to 150 nM; in assay [2], less than 50 nM; in assay [3] (Homo sapiens, NCI-H358, 120 h), less than 1000 nM.
Turning to `C[C@@H](NC(=O)c1ccc(=O)n(-c2cncc(-c3cnnn3C)c2)n1)c1cccc(C(C)(F)F)c1F` [Example 1-11, N-[(1R)-1-[3-(1,1-difluoroethyl)-2-fluoro-phenyl]ethyl]-1-[5-(3-methyltriazol-4-yl)-3-pyridyl]-6-oxo-pyridazine-3-carboxamide], the IC50 in assay [1] is 50 to 150 nM; in assay [2], 50 to 150 nM; in assay [3] (Homo sapiens, NCI-H358, 120 h), less than 1000 nM.
Turning to `C[C@@H](NC(=O)c1ccc(=O)n(-c2cc(-c3cnnn3C)cnc2F)n1)c1cccc(C(F)(F)F)c1F` [Example 6-7, N-{(R)-1-[2-fluoro-3-(trifluoromethyl)phenyl]ethyl}-1-[2-fluoro-5-(1-methyl-1H-1,2,3-triazol-5-yl)-3-pyridyl]-6-oxo-1,6-dihydropyridazine-3-carboxamide], the IC50 in assay [1] was less than 50 nM; in assay [2], less than 50 nM; in assay [3] (Homo sapiens, NCI-H358, 120 h) it was less than 1000 nM.
Consider `Cc1cc(C(=O)N[C@H](C)c2cc(N)cc(C(F)F)c2)nn(-c2cncc(-c3cnnn3C)c2)c1=O` [Example 2-7, N-[(1R)-1-[3-amino-5-(difluoromethyl)phenyl]ethyl]-5-methyl-1-[5-(3-methyltriazol-4-yl)-3-pyridyl]-6-oxo-pyridazine-3-carboxamide], for which the IC50 is less than 50 nM in assay [1]; less than 50 nM in assay [2]; greater than 3000 nM in assay [3] (Homo sapiens, NCI-H358, 120 h).
For `C[C@@H](NC(=O)c1ccc(=O)n(-c2cncc(-c3cnnn3C3CC3)c2)n1)c1cccc(C(F)(F)CO)c1F` [Example 1-53, N-[(1R)-1-[3-(1,1-difluoro-2-hydroxy-ethyl)-2-fluoro-phenyl]ethyl]-1-[5-(1-cyclopropyl-1H-1,2,3-triazol-5-yl)-3-pyridyl]-6-oxo-pyridazine-3-carboxamide], the IC50 in assay [1] was less than 50 nM; in assay [2], less than 50 nM; in assay [3] (Homo sapiens, NCI-H358, 120 h) it was less than 1000 nM.
In the case of `C[C@@H](NC(=O)c1cc(CO)c(=O)n(-c2cncc(-c3cnnn3C)c2)n1)c1cccc(C(F)(F)F)c1F` [Example 1-61, N-{(R)-1-[2-fluoro-3-(trifluoromethyl)phenyl]ethyl}-5-(hydroxymethyl)-1-[5-(1-methyl-1H-1,2,3-triazol-5-yl)-3-pyridyl]-6-oxo-1,6-dihydropyridazine-3-carboxamide], the IC50 was less than 50 nM in assay [1]; 50 to 150 nM in assay [2]; less than 1000 nM in assay [3] (Homo sapiens, NCI-H358, 120 h).
For the compound `[2H]C([2H])([2H])c1cc(C(=O)N[C@H](C)c2cccc(C(F)F)c2F)nn(-c2cncc(-c3cnnn3C)c2)c1=O` [Example 7-2, N-{(R)-1-[3-(difluoromethyl)-2-fluorophenyl]ethyl}-5-[methyl-trideuterio]-1-[5-(1-methyl-1H-1,2,3-triazol-5-yl)-3-pyridyl]-6-oxo-1,6-dihydropyridazine-3-carboxamide], the IC50 in assay [1] was less than 50 nM; in assay [2] it was 50 to 150 nM; in assay [3] (Homo sapiens, NCI-H358, 120 h) it was less than 1000 nM.
On to “(R)-3-bromo-N-(1-(2-fluoro-3-(trifluoromethyl)phenyl)ethyl)-5'-(1-methyl-1H-1,2,3-triazol-5-yl)-2-oxo-2H-[1,3'-bipyridine]-5-carboxamide [Example 1-22]”, for which the IC50 in assay [1] was 50 to 150 nM; in assay [2], greater than 150 nM; in assay [3] it was less than 1000 nM.
As for `Cc1cc(C(=O)N[C@H](C)c2cccc(C(F)(F)F)c2F)nn(-c2cncc(-c3cnnn3C)c2)c1=O` [Example 7-3, N-{ (R)-1-[2-fluoro-3-(trifluoromethyl)phenyl]ethyl}-5-methyl-1-[5-(1-methyl-1H-1,2,3-triazol-5-yl)-3-pyridyl]-6-oxo-1,6-dihydropyridazine-3-carboxamide], the IC50 in assay [1] was less than 50 nM; in assay [2], 50 to 150 nM; in assay [3] (Homo sapiens, NCI-H358, 120 h), less than 1000 nM.
Consider `[2H]C([2H])([2H])n1nncc1-c1cncc(-n2nc(C(=O)N[C@H](C)c3cccc(C(F)(F)F)c3F)ccc2=O)c1` [Example 1-5, N-[(1R)-1-[2-fluoro-3-(trifluoromethyl)phenyl]ethyl]-6-oxo-1-[5-[3-(trideuteriomethyl)triazol-4-yl]-3-pyridyl]pyridazine-3-carboxamide], for which, in assay [3] (Homo sapiens, NCI-H358, 120 h), the IC50 was less than 1000 nM.
In the case of `C[C@@H](NC(=O)c1ccc(=O)n(-c2cncc(-c3cnnn3C)c2)n1)c1cccc(C2(C)CC2)c1F` [Example 1-33, N-[(1R)-1-[2-fluoro-3-(1-methylcyclopropyl)phenyl]ethyl]-1-[5-(3-methyltriazol-4-yl)-3-pyridyl]-6-oxo-pyridazine-3-carboxamide], the IC50 in assay [1] was greater than 150 nM; in assay [3] (Homo sapiens, NCI-H358, 120 h), greater than 3000 nM.
On to `[2H]C([2H])([2H])[C@@]([2H])(NC(=O)c1ccc(=O)n(-c2cncc(-c3cnnn3C)c2)n1)c1cccc(C(F)(F)F)c1F` [Example 22, (R)-N-(1-(2-fluoro-3-(trifluoromethyl)phenyl)ethyl-1,2,2,2-tetradeuterio)-1-(5-(1-methyl-1H-1,2,3-triazol-5-yl)pyridin-3-yl)-6-oxo-1,6-dihydropyridazine-3-carboxamide], for which the IC50 in assay [3] (Homo sapiens, NCI-H358, 120 h) was less than 1000 nM.
For the compound `CCn1nncc1-c1cncc(-n2nc(C(=O)N[C@H](C)c3cccc(C(F)(F)CO)c3F)cc(C)c2=O)c1` [Example 1-13, N-[(1R)-1-[3-(1,1-difluoro-2-hydroxy-ethyl)-2-fluoro-phenyl]ethyl]-1-[5-(3-ethyltriazol-4-yl)-3-pyridyl]-5-methyl-6-oxo-pyridazine-3-carboxamide], the IC50 in assay [1] and in assay [2] was less than 50 nM throughout.
